# Test results: the NIST ThermoML archive (doi:10.1021/je800742d)
# ± gives the expanded uncertainty stated by the source.
# Details: Crystal; visual observation
compound,measurement,value
CN1CCN(c2cc3c(cc2F)c(=O)c(C(=O)O)cn3-c2ccc(F)cc2)CC1 [difloxacin],Normal melting temperature,278.00 ± 0.5 °C
